{"source": "patent US20260355196A1", "about": "“INHIBITORS AND DEGRADERS OF PIP4K PROTEIN” (Larkspur Biosciences, Inc., priority 2023, published 2026)"}
{"biological_target": "T1, PIP4K2C (Homo sapiens, UniProt Q8TBX8)", "T1 sequence (Q8TBX8 1-421)": "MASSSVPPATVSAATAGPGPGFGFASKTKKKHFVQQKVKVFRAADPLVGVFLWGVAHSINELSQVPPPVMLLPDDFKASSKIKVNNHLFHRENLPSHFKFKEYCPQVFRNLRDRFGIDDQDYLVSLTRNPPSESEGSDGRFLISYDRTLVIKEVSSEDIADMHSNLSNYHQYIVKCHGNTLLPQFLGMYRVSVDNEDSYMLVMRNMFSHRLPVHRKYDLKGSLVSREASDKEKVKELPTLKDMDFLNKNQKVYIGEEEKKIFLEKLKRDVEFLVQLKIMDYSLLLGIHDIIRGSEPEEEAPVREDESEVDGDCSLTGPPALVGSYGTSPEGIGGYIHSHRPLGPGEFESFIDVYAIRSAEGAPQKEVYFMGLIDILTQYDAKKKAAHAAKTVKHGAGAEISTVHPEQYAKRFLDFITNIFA", "test": "HiBiT PIP4K2C degradation assay in MOLT-4 cells (endogenous PIP4K2C C-terminally tagged with HiBiT)", "format": "cell-based", "parameters": "untagged in primary human PBMCs and monocyte-derived dendritic cells", "settings": "6 hours of incubation time, rather than 24 hours; MOLT-4, top concentration 10 micromolar; read-out: HiBIT-degradation MOLT4 PIP4k2C DC50 (6 hours, marked *)", "method_in_brief": "(§1)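 Luminescent HiBiT lytic readout of residual PIP4K2C-HiBiT (CRISPR knock-in, MOLT-4, phenol red-free RPMI-1640 + 10% FBS). Cells exposed 6 or 24 h at 37 C to compound, top 10 micromolar, 3-fold, 10 points, duplicate. Hill fit (Levenberg-Marquardt) gives DC50.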", "units": {"DC50": "nM"}}
{"smiles": "O=C1CCC(n2c(=O)oc3cc(C4CCN(CCC5CCN(C(=O)[C@@H]6CCC[C@H](Nc7ncc(F)c(-c8cccc(-n9ccccc9=O)c8)n7)C6)CC5)CC4)ccc32)C(=O)N1", "note": "(stereo partly drawn) [Compound 350, 3-(6-(1-(2-(1-((1R,3S)-3-((5-fluoro-4-(3-(2-oxopyridin-1(2H)-yl)phenyl)pyrimidin-2-yl)amino)cyclohexane-1-carbonyl)piperidin-4-yl)ethyl)piperidin-4-yl)-2-oxobenzo[d]oxazol-3 (2H)-yl)piperidine-2,6-dione]", "DC50": "< 500"}
{"biological_target": "T1, PIP4K2C", "test": "HiBiT PIP4K2C degradation assay in MOLT-4 cells (endogenous PIP4K2C C-terminally tagged with HiBiT)", "format": "cell-based", "parameters": "untagged in primary human PBMCs and monocyte-derived dendritic cells", "settings": "24 hours incubation, MOLT-4, top concentration 10 micromolar; read-out: HiBIT-degradation MOLT4 PIP4k2C 24 hours DC50", "method_in_brief": "as §1", "units": {"DC50": "nM"}}
{"smiles": "Cn1c(=O)n(C2CCC(=O)NC2=O)c2ccc(C3CCN(CCC4CCN(C(=O)[C@@H]5CCC[C@H](Nc6ncc(F)c(-c7cccc(-n8ccccc8=O)c7)n6)C5)CC4)CC3)cc21", "note": "(stereo partly drawn) [Compound 335, 3-(5-(1-(2-(1-((1R,3S)-3-((5-fluoro-4-(3-(2-oxopyridin-1(2H)-yl)phenyl)pyrimidin-2-yl)amino)cyclohexane-1-carbonyl)piperidin-4-yl)ethyl)piperidin-4-yl)-3-methyl-2-oxo-2,3-dihydro-1H-benzo[d]imidazol-1-yl)piperidine-2,6-dione]", "DC50": "< 500"}
{"smiles": "O=C1CCC(n2c(=O)oc3cc(N4CCN(CC5CCN(CC(=O)N[C@H]6CC[C@H](Nc7ncc(F)c(-c8cccc(-n9ccccc9=O)c8)n7)CC6)CC5)CC4)ccc32)C(=O)N1", "note": "(stereo partly drawn) [Compound 339, trans-2-(4-((4-(3-(2,6-dioxopiperidin-3-yl)-2-oxo-2,3-dihydrobenzo[d]oxazol-6-yl)piperazin-1-yl)methyl)piperidin-1-yl)-N-(4-((5-fluoro-4-(3-(2-oxopyridin-1(2H)-yl)phenyl)pyrimidin-2-yl)amino)cyclohexyl)acetamide]", "DC50": "< 500"}
{"smiles": "O=C1CCC(n2c(=O)oc3cc(N4CCN(CC5CCN(CC(=O)N6CCC(Nc7ncc(F)c(-c8cccc(-n9ccccc9=O)c8)n7)CC6)CC5)CC4)ccc32)C(=O)N1", "note": "(stereo not shown) [Compound 340, 3-(6-(4-((1-(2-(4-((5-fluoro-4-(3-(2-oxopyridin-1(2H)-yl)phenyl)pyrimidin-2-yl)amino)piperidin-1-yl)-2-oxoethyl)piperidin-4-yl)methyl)piperazin-1-yl)-2-oxobenzo[d]oxazol-3 (2H)-yl)piperidine-2,6-dione]", "DC50": "< 500"}
{"smiles": "O=C1CCC(Nc2ccc(N3CCN(CC4CCN(CC(=O)N5CCC(Nc6ncc(F)c(-c7cccc(-n8ccccc8=O)c7)n6)CC5)CC4)CC3)c(F)c2)C(=O)N1", "note": "(stereo not shown) [Compound 341, 3-((3-fluoro-4-(4-((1-(2-(4-((5-fluoro-4-(3-(2-oxopyridin-1(2H)-yl)phenyl)pyrimidin-2-yl)amino)piperidin-1-yl)-2-oxoethyl)piperidin-4-yl)methyl)piperazin-1-yl)phenyl)amino)piperidine-2,6-dione]", "DC50": "< 500"}
{"smiles": "O=C1CCC(Nc2ccc(C3CCN(C4CCN(CCC(=O)N5CCC(Nc6ncc(F)c(-c7cccc(-n8ccccc8=O)c7)n6)CC5)CC4)CC3)c(F)c2)C(=O)N1", "note": "(stereo not shown) [Compound 343, 3-((3-fluoro-4-(1′-(3-(4-((5-fluoro-4-(3-(2-oxopyridin-1(2H)-yl)phenyl)pyrimidin-2-yl)amino)piperidin-1-yl)-3-oxopropyl)-[1,4′-bipiperidin]-4-yl)phenyl)amino)piperidine-2,6-dione]", "DC50": "< 500"}
{"smiles": "Cn1nc(N2CCC(=O)NC2=O)c2ccc(C3CCN(CC(=O)N4CCC(O)(C(=O)N5CCC(Nc6ncc(F)c(-c7cccc(-n8ccccc8=O)c7)n6)CC5)CC4)CC3)cc21", "note": "[Compound 346, 1-(6-(1-(2-(4-(4-((5-fluoro-4-(3-(2-oxopyridin-1(2H)-yl)phenyl)pyrimidin-2-yl)amino)piperidine-1-carbonyl)-4-hydroxypiperidin-1-yl)-2-oxoethyl)piperidin-4-yl)-1-methyl-1H-indazol-3-yl)dihydropyrimidine-2,4(1H,3H)-dione]", "DC50": "> 5000"}
{"smiles": "Cn1nc(C2CCC(=O)NC2=O)c2ccc(C3CCN(CCC4CCN(C(=O)[C@@H]5CCC[C@H](Nc6ncc(F)c(-c7cccc(-n8ccccc8=O)c7)n6)C5)CC4)CC3)cc21", "note": "(stereo partly drawn) [Compound 351, 3-(6-(1-(2-(1-((1R,3S)-3-((5-fluoro-4-(3-(2-oxopyridin-1(2H)-yl)phenyl)pyrimidin-2-yl)amino)cyclohexane-1-carbonyl)piperidin-4-yl)ethyl)piperidin-4-yl)-1-methyl-1H-indazol-3-yl)piperidine-2,6-dione]", "DC50": "< 500"}
{"smiles": "O=C1CCC(n2c(=O)oc3cc(C4CCN(C5CCN(CCC(=O)N6CCC(Nc7ncc(F)c(-c8cccc(-n9ccccc9=O)c8)n7)CC6)CC5)CC4)ccc32)C(=O)N1", "note": "(stereo not shown) [Compound 353, 3-(6-(1′-(3-(4-((5-fluoro-4-(3-(2-oxopyridin-1(2H)-yl)phenyl)pyrimidin-2-yl)amino)piperidin-1-yl)-3-oxopropyl)-[1,4′-bipiperidin]-4-yl)-2-oxobenzo[d]oxazol-3 (2H)-yl)piperidine-2,6-dione]", "DC50": "< 500"}
{"smiles": "Cc1ccc(=O)n(-c2cccc(-c3nc(N[C@H]4CCC[C@@H](C(=O)N5CCC(CCN6CCC(c7ccc8c(c7)oc(=O)n8C7CCC(=O)NC7=O)CC6)CC5)C4)ncc3F)c2)c1", "note": "(stereo partly drawn) [Compound 354, 3-(6-(1-(2-(1-((1R,3S)-3-((5-fluoro-4-(3-(5-methyl-2-oxopyridin-1(2H)-yl)phenyl)pyrimidin-2-yl)amino)cyclohexane-1-carbonyl)piperidin-4-yl)ethyl)piperidin-4-yl)-2-oxobenzo[d]oxazol-3 (2H)-yl)piperidine-2,6-dione]", "DC50": "< 500"}
{"smiles": "O=C1CCC(n2c(=O)oc3cc(C4CCN(CCC5CCN(C(=O)[C@@H]6CCC[C@H](Nc7ncc(F)c(-c8cccc(N9CCCOC9=O)c8)n7)C6)CC5)CC4)ccc32)C(=O)N1", "note": "(stereo partly drawn) [Compound 355, 3-(6-(1-(2-(1-((1R,3S)-3-((5-fluoro-4-(3-(2-oxo-1,3-oxazinan-3-yl)phenyl)pyrimidin-2-yl)amino)cyclohexane-1-carbonyl)piperidin-4-yl)ethyl)piperidin-4-yl)-2-oxobenzo[d]oxazol-3 (2H)-yl)piperidine-2,6-dione]", "DC50": "500 to 1000"}
{"smiles": "O=C1CCC(n2c(=O)oc3cc(C4CCN(CCC5CCN(C(=O)[C@@H]6CCC[C@H](Nc7ncc(F)c(-c8cccc(N9CCCCC9=O)c8)n7)C6)CC5)CC4)ccc32)C(=O)N1", "note": "(stereo partly drawn) [Compound 356, 3-(6-(1-(2-(1-((1R,3S)-3-((5-fluoro-4-(3-(2-oxopiperidin-1-yl)phenyl)pyrimidin-2-yl)amino)cyclohexane-1-carbonyl)piperidin-4-yl)ethyl)piperidin-4-yl)-2-oxobenzo[d]oxazol-3 (2H)-yl)piperidine-2,6-dione]", "DC50": "< 500"}
{"smiles": "O=C1CCC(n2c(=O)oc3cc(C4CCN(CCC5CCN(C(=O)[C@@H]6CCC[C@H](Nc7ncc(F)c(-c8cccc(-n9cc(C(F)(F)F)ccc9=O)c8)n7)C6)CC5)CC4)ccc32)C(=O)N1", "note": "(stereo partly drawn) [Compound 357, 3-(6-(1-(2-(1-((1R,3S)-3-((5-fluoro-4-(3-(2-oxo-5-(trifluoromethyl)pyridin-1(2H)-yl)phenyl)pyrimidin-2-yl)amino)cyclohexane-1-carbonyl)piperidin-4-yl)ethyl)piperidin-4-yl)-2-oxobenzo[d]oxazol-3 (2H)-yl)piperidine-2,6-dione]", "DC50": "< 500"}
{"smiles": "O=C1CCC(n2c(=O)oc3cc(N4CCC(CN5CCC(CC(=O)N[C@H]6CC[C@H](Nc7ncc(F)c(-c8cccc(-n9ccccc9=O)c8)n7)CC6)CC5)CC4)ccc32)C(=O)N1", "note": "(stereo partly drawn) [Compound 358, trans-2-(1-((1-(3-(2,6-dioxopiperidin-3-yl)-2-oxo-2,3-dihydrobenzo[d]oxazol-6-yl)piperidin-4-yl)methyl)piperidin-4-yl)-N-(4-((5-fluoro-4-(3-(2-oxopyridin-1(2H)-yl)phenyl)pyrimidin-2-yl)amino)cyclohexyl)acetamide]", "DC50": "< 500"}
{"biological_target": "T1, PIP4K2C", "test": "HiBiT PIP4K2C degradation assay in MOLT-4 cells (endogenous PIP4K2C C-terminally tagged with HiBiT)", "format": "cell-based", "parameters": "untagged in primary human PBMCs and monocyte-derived dendritic cells", "settings": "read-out: HiBIT-degradation MOLT4 PIP4k2C 24 hours DC50; 24 hours incubation, MOLT-4, top concentration 10 micromolar", "method_in_brief": "as §1", "units": {"DC50": "nM"}}
{"smiles": "Cn1c(=O)n(C2CCC(=O)NC2=O)c2ccc(N3CCC(N4CCC(C(=O)N[C@H]5CC[C@H](Nc6ncc(F)c(-c7cccc(-n8ccccc8=O)c7)n6)CC5)CC4)CC3)cc21", "note": "(stereo partly drawn) [Compound 344, trans-1′-(1-(2,6-dioxopiperidin-3-yl)-3-methyl-2-oxo-2,3-dihydro-1H-benzo[d]imidazol-5-yl)-N-(4-((5-fluoro-4-(3-(2-oxopyridin-1(2H)-yl)phenyl)pyrimidin-2-yl)amino)cyclohexyl)-[1,4′-bipiperidine]-4-carboxamide]", "DC50": "< 500"}
{"biological_target": "T1, PIP4K2C", "test": "HiBiT PIP4K2C degradation assay in MOLT-4 cells (endogenous PIP4K2C C-terminally tagged with HiBiT)", "format": "cell-based", "parameters": "untagged in primary human PBMCs and monocyte-derived dendritic cells", "settings": "read-out: HiBIT-degradation MOLT4 PIP4k2C DC50 (6 hours, marked *); 6 hours of incubation time, rather than 24 hours; MOLT-4, top concentration 10 micromolar", "method_in_brief": "as §1", "units": {"DC50": "nM"}}
{"smiles": "O=C1CCC(Nc2ccc(C3CCN([C@H]4CC[C@H](C(=O)N[C@H]5CC[C@H](Nc6ncc(F)c(-c7cccc(-n8ccccc8=O)c7)n6)CC5)CC4)CC3)c(F)c2)C(=O)N1", "note": "(stereo partly drawn) [Compound 345, trans-4-(4-(4-((2,6-dioxopiperidin-3-yl)amino)-2-fluorophenyl)piperidin-1-yl)-N-(trans-4-((5-fluoro-4-(3-(2-oxopyridin-1(2H)-yl)phenyl)pyrimidin-2-yl)amino)cyclohexyl)cyclohexane-1-carboxamide]", "DC50": "< 500"}
